Reference: patent US11583529B2, “Treatment of inflammatory disorders” (Aldeyra Therapeutics, Inc., priority 2017, dated 2023)

Key:
[1] = tested on: rat model of endotoxin induced uveitis; assay: Rat model of endotoxin-induced uveitis (EIU), topical or intravitreal treatment; format: in vivo, female Lewis rats
Procedure: An in vivo study was conducted to assess the efficacy of intravitreal administration of compound I-22 in a rat model of endotoxin induced uveitis, one of the most appropriate models for the study of NIU (Smith et al., 1998) (Toxikon Study 16-04078-N1). Ocular inflammation was induced in female Lewis rats (n=10/group) by a single foot pad injection of LPS (100 μL) (Herbort et al., 1988, Graefe's Arch Clin Exp Ophthalmol. 226:553-558). Compound I-22 (5 mg/mL) was administered intravitreally into each eye (25 μg/eye), or topically to both eyes at 1, 3, 7, 10, and 17 hours post-LPS injection, within one hour of LPS administration. Balanced salt solution (BSS) served as a vehicle control. Retinal exams were performed prior to study start and six and 24 hours following LPS administration and scored using a Combined Draize and McDonald Shadduck scoring system, based on assessments of: retinal vasculopathy and retinal hemorrhage, exudate, and detachment.
Endotoxin-induced uveitis was created by a single injection of lipopolysaccharide (LPS; 100 μL) into one hind footpad. Ten (10) female Lewis rats per group received control (balanced salt solution, BSS) or test article (compound I-22) topically to both eyes at 1, 3, 7, 10, and 17 hours post-LPS injection. At each dosing time point, two drops (5 μL each, separated by approximately two minutes, for a total of 10 μL/eye/dose) were instilled into each eye of the animals. Ten female Lewis rats per group received control (BSS) or compound I-22 by a single intravitreal injection (IVT) in each eye at one hour post-LPS injection. Each eye received 5 μL of vehicle or test article.
Animals were anesthetized with isoflurane 1-3.5% for ophthalmic examinations. Both eyes of each animal were evaluated pre-dose using slit-lamp biomicroscopy, and an indirect ophthalmoscope or a surgical microscope, according to the Combined Draize and McDonald-Shadduck Scoring System, and the Ocular Posterior Segment Scoring Scale. All pupils were dilated with 1% tropicamide ophthalmic solution before ocular examination. Only rats showing no signs of eye irritation, ocular defects or preexisting corneal injury were used in the study.
Ophthalmic examinations were performed on both eyes of each animal approximately six and 24 hours following LPS administration, using slit-lamp biomicroscopy and a surgical microscope or via indirect ophthalmoscopy. Pupils were dilated with 1% Tropicamide Ophthalmic Solution before ophthalmic examinations.
Quantitative, continuous data from this study were analyzed using one-way ANOVA. Alternative or additional statistical methods were used as necessary.
In the same study, the efficacy of compound 1-5 was compared to that of compound 1-22. Compound 1-5 was topically administered topically to the eye at hours 1, 3, 7, 10, and 17, after LPS induction, or by a single intravitreal (IVT) injection one hour after LPS induction (n=10 per group), as was compound I-22. Ocular exams were performed 6 and 24 hours after LPS injection. Anterior segments were scored using a combined Draize and McDonald-Shadduck scoring system, and posterior segments were scored using 0 to 1 (vitreous, optic disc, retinal vasculature) and 0 to 4 (retinal and choroidal hemorrhage, exudation, and detachment) scales. Statistical significance from vehicle control was determined by ANOVA, followed by Tukey's post hoc test.

[2] = tested on: Dry Eye Disease (DED); assay: Phase 2b clinical study of I-5 Ophthalmic Solution (0.25% and 0.1%) vs vehicle in subjects with dry eye disease; format: in vivo, human; conditions: for Reason for Study Withdrawal: Adverse Events / Study Completion: Discontinued: N = 100
Source text: Objectives: • To evaluate the efficacy of I-5 Ophthalmic Solutions (0.25% and 0.1%) on baseline to weeks 2, 4, 8, and 12 change scores for sign and symptom endpoints of dry eye disease. • To evaluate effect sizes for efficacy endpoints of I-5 Ophthalmic Solutions (0.25% and 0.1%) vs vehicle for the treatment of the signs and symptoms of dry eye disease to confirm the endpoint selection and sample size for Phase 3 studies. • To evaluate the safety and tolerability of I-5 Ophthalmic Solutions (0.25% and 0.1%) to vehicle for the treatment of the signs and symptoms of dry eye disease.
Treatment: During the 12-week (84±3 days) treatment period, I-5 Ophthalmic Solution at concentrations of 0.1%, 0.25%, or vehicle ophthalmic solution was administered QID by bilateral topical ocular dosing. Subjects were randomized to one of three treatment groups (1:1:1) to receive study drug after the Post-CAE® assessments at Visit 2.
Summary of Visit Schedule: Six visits over the course of approximately 14 weeks • Visit 1=Day −14±2, CAE® Screening • Visit 2=Day 1, CAE® Confirmation/Baseline • Visit 3=Day 15±2, 2-Week Follow-Up • Visit 4=Day 29±2, 4-Week Follow-Up • Visit 5=Day 57±3, 8-Week Follow-Up • Visit 6=Day 85±3, 12-Week CAE® Follow-Up & Study Exit
Note: a subject could not have an Ocular Discomfort score of 4 at time=0); • 12 Had at least one eye, the same eye, satisfy all criteria for 6, 7, 8, 9, 10, and 11 above.
Safety Measures: • Visual acuity • Slit-lamp evaluation • Adverse event query • Intraocular Pressure (IOP) • Dilated fundoscopy
Efficacy Analysis • Evaluated baseline to weeks 2, 4, 8 and 12 change scores with I-5 on DED sign and symptom endpoints (both pre-CAE and CAE endpoints). Each endpoint was analyzed at a two-sided alpha level of 0.05, and the overall type I error was not controlled for in this investigative study. • Evaluated effect size of baseline to weeks 2, 4, 8 and 12 change scores of I-5 vs vehicle on DED sign and symptom endpoints (both pre-CAE and CAE endpoints) to confirm the endpoint selection for primary outcome parameters and sample size for Phase 3 studies with I-5. • Sub-group analyses on effect size of baseline to weeks 2, 4, 8 and 12 change scores of I-5 vs vehicle on DED sign and symptom endpoints (both pre-CAE and CAE endpoints) [Subgroups were prospectively detailed in the Statistical Analysis Plan (SAP)].

[3] = tested on: dextran sulfate sodium (DSS)-induced acute ulcerative colitis (UC); assay: 7-Day DSS-induced acute ulcerative colitis model; format: in vivo, female Swiss Webster mice; conditions: vs PO vehicle
[4] = intravitreal administration, vs vehicles
[5] = 0.25% group, majority (>50-100%) of effect vs vehicle at first study endpoint (Week 2 or 4)
[6] = 200 mg/kg PO BID, Days −3 through 6

Study Completion: Discontinued ([2]; 0.1% QID): 3 (3.0%)
Study Completion: Discontinued ([2]; 0.25% QID): 12 (12.0%)
Structure (SMILES): CC(C)(O)c1nc2ccc(Cl)cc2cc1N [Compound I-5]
ocular exam scores ([1]; IVT, vs vehicle): significantly improved
Total ocular inflammation [1, 4]: lower
anterior chamber inflammation [1, 4]: lower
retina-choroid inflammation [1, 4]: lower
signs of inflammation in the rat EIU model ([1]; overall): reduced
response in the EIU model ([1]; overall, I-22 compared with I-5): positive response
ocular exam scores ([1]; topical (TO), 6 hours and 24 hours, vs vehicle): significantly improved
Total ocular inflammation score ([1]; topical (TO), vs vehicle): lower
anterior chamber inflammation score ([1]; topical (TO), vs vehicle): lower
retina-choroid inflammation score ([1]; topical (TO), vs vehicle): lower
Reason for Study Withdrawal: Adverse Events ([2]; 0.1% QID): 2 (2.0%)
effects at later time points ([2]; 0.1%, clearest with signs, especially ocular staining): Matched Higher Dose Effects at Later Time Points
Reason for Study Withdrawal: Adverse Events ([2]; 0.25% QID): 10 (10.0%)
early onset of effect, sign endpoints (Lissamine green total score, fluorescein total score, tear osmolarity positive; TFBUT negative) [2, 5]: Positive early onset for 3 out of 4 sign endpoints
early onset of effect, symptom endpoints (ODS, OD4SQ, OSDI positive; SANDE negative) [2, 5]: Positive early onset for 3 out of 4 symptom endpoints
Fluorescein Staining: Central (0-4); Dose Trend? ([2]; ITT, observed data only): ✓
Fluorescein Staining: Central (0-4); Drug Trend? ([2]; ITT, observed data only): ✓
Fluorescein Staining: Conjunctival Sum Score (Nasal and Temporal) (0-8; Σ 2×); Dose Trend? ([2]; ITT, observed data only): ✓
Fluorescein Staining: Conjunctival Sum Score (Nasal and Temporal) (0-8; Σ 2×); Drug Trend? ([2]; ITT, observed data only): ✓
Fluorescein Staining: Corneal Sum Score (Inferior, Superior, and Central) (0-12; Σ 3×); Drug Trend? ([2]; ITT, observed data only): ✓
Fluorescein Staining: Inferior (0-4); Drug Trend? ([2]; ITT, observed data only): ✓
Fluorescein Staining: Nasal (0-4); Dose Trend? ([2]; ITT, observed data only): ✓
Fluorescein Staining: Nasal (0-4); Drug Trend? ([2]; ITT, observed data only): ✓
Fluorescein Staining: Temporal (0-4); Dose Trend? ([2]; ITT, observed data only): ✓
Fluorescein Staining: Temporal (0-4); Drug Trend? ([2]; ITT, observed data only): ✓
Fluorescein Staining: Total Score (all five regions) (0-20; Σ 5×); Drug Trend? ([2]; ITT, observed data only): ✓
OD & 4-Symptom Questionnaire: Burning (0-5); Drug Trend? ([2]; ITT, observed data only): ✓
OD & 4-Symptom Questionnaire: Dryness (0-5); Dose Trend? ([2]; ITT, observed data only): ✓
OD & 4-Symptom Questionnaire: Dryness (0-5); Drug Trend? ([2]; ITT, observed data only): ✓
OD & 4-Symptom Questionnaire: Grittiness (0-5); Dose Trend? ([2]; ITT, observed data only): ✓
OD & 4-Symptom Questionnaire: Grittiness (0-5); Drug Trend? ([2]; ITT, observed data only): ✓
OD & 4-Symptom Questionnaire: Overall Ocular Discomfort (0-5); Dose Trend? ([2]; ITT, observed data only): ✓
OD & 4-Symptom Questionnaire: Overall Ocular Discomfort (0-5); Drug Trend? ([2]; ITT, observed data only): ✓
OD & 4-Symptom Questionnaire: Stinging (0-5); Dose Trend? ([2]; ITT, observed data only): ✓
OD & 4-Symptom Questionnaire: Stinging (0-5); Drug Trend? ([2]; ITT, observed data only): ✓
Ocular Discomfort Scale (0-4); Dose Trend? ([2]; ITT, observed data only): ✓
Ocular Discomfort Scale (0-4); Drug Trend? ([2]; ITT, observed data only): ✓
Ocular Surface Disease Index (OSDI) (0-100); Dose Trend? ([2]; ITT, observed data only): ✓
Ocular Surface Disease Index (OSDI) (0-100); Drug Trend? ([2]; ITT, observed data only): ✓
Osmolarity (mOsm/L); Drug Trend? ([2]; ITT, observed data only): ✓
SANDE Questionnaire Frequency (0-100 mm); Drug Trend? ([2]; ITT, observed data only): ✓
SANDE Questionnaire Severity (0-100 mm); Dose Trend? ([2]; ITT, observed data only): ✓
SANDE Questionnaire Severity (0-100 mm); Drug Trend? ([2]; ITT, observed data only): ✓
Schirmer’s Test (mm); Dose Trend? ([2]; ITT, observed data only): ✓
Schirmer’s Test (mm); Drug Trend? ([2]; ITT, observed data only): ✓
Tear Film Break-up Time (sec); Dose Trend? ([2]; ITT, observed data only): ✓
Usamine Green Staining: Central (0-4); Dose Trend? ([2]; ITT, observed data only): ✓
Usamine Green Staining: Central (0-4); Drug Trend? ([2]; ITT, observed data only): ✓
Usamine Green Staining: Conjunctival Sum Score (Nasal and Temporal) (0-8; Σ 2×); Dose Trend? ([2]; ITT, observed data only): ✓
Usamine Green Staining: Conjunctival Sum Score (Nasal and Temporal) (0-8; Σ 2×); Drug Trend? ([2]; ITT, observed data only): ✓
Usamine Green Staining: Corneal Sum Score (Inferior, Superior, and Central) (0-12; Σ 3×); Dose Trend? ([2]; ITT, observed data only): ✓
Usamine Green Staining: Corneal Sum Score (Inferior, Superior, and Central) (0-12; Σ 3×); Drug Trend? ([2]; ITT, observed data only): ✓
Usamine Green Staining: Inferior (0-4); Dose Trend? ([2]; ITT, observed data only): ✓
Usamine Green Staining: Inferior (0-4); Drug Trend? ([2]; ITT, observed data only): ✓
Usamine Green Staining: Nasal (0-4); Dose Trend? ([2]; ITT, observed data only): ✓
Usamine Green Staining: Nasal (0-4); Drug Trend? ([2]; ITT, observed data only): ✓
Usamine Green Staining: Superior (0-4); Dose Trend? ([2]; ITT, observed data only): ✓
Usamine Green Staining: Temporal (0-4); Dose Trend? ([2]; ITT, observed data only): ✓
Usamine Green Staining: Temporal (0-4); Drug Trend? ([2]; ITT, observed data only): ✓
Usamine Green Staining: Total Score (all five regions) (0-20; Σ 5×); Dose Trend? ([2]; ITT, observed data only): ✓
Usamine Green Staining: Total Score (all five regions) (0-20; Σ 5×); Drug Trend? ([2]; ITT, observed data only): ✓
Dose Response ([2]; between 0.1% and 0.25% dose strengths): Demonstrated
Body weights ([3]; 200 mg/kg PO BID (Groups 5, 6, 7, 8, 9, and 10)): did not differ significantly
proximal colon edema, reduction [3, 6]: 63%
proximal colon erosion, reduction [3, 6]: 73%
